Test results taken from PubChem BioAssay AID1963854 (Molecular Pharmacology Branch, DTP, NCI, 2024).

System: 186277-243-T-J2-PDC complex spheroid viability
Assay: Anticancer human tumor 186277-243-T-J2-PDC patient-derived colon adenocarcinoma cell line growth inhibition [POLQ]
Conditions: for IC50: curve of first compound; for viability, T/C: stronger effect = lower value
Summary of the method: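 PDC + HUVEC + MSC complex spheroids; POLQ inhibitors ± partner drugs; top conc. at/near clinical Cmax, else 10 microM (SN-38 1 microM), half-log dilutions; 37 degrees C, 5% CO2.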

[1] = second compound 0.0316 µM, first compound 0.0316 µM
[2] = second compound 0.0316 µM, first compound 0.1 µM
[3] = second compound 0.0316 µM, first compound 0.316 µM
[4] = second compound 0.0316 µM, first compound 1 µM
[5] = second compound 0.0316 µM, first compound 3.16 µM
[6] = second compound 0.0316 µM, first compound 10 µM
[7] = second compound 0.1 µM, first compound 0.0316 µM
[8] = second compound 0.1 µM, first compound 0.1 µM
[9] = second compound 0.1 µM, first compound 0.316 µM
[10] = second compound 0.1 µM, first compound 1 µM
[11] = second compound 0.1 µM, first compound 3.16 µM
[12] = second compound 0.1 µM, first compound 10 µM
[13] = second compound 0.316 µM, first compound 0.0316 µM
[14] = second compound 0.316 µM, first compound 0.1 µM
[15] = second compound 0.316 µM, first compound 0.316 µM
[16] = second compound 0.316 µM, first compound 1 µM
[17] = second compound 0.316 µM, first compound 3.16 µM
[18] = second compound 0.316 µM, first compound 10 µM
[19] = second compound 1 µM, first compound 0.0316 µM
[20] = second compound 1 µM, first compound 0.1 µM
[21] = second compound 1 µM, first compound 0.316 µM
[22] = second compound 1 µM, first compound 1 µM
[23] = second compound 1 µM, first compound 3.16 µM
[24] = second compound 1 µM, first compound 10 µM
[25] = second compound 3.16 µM, first compound 0.0316 µM
[26] = second compound 3.16 µM, first compound 0.1 µM
[27] = second compound 3.16 µM, first compound 0.316 µM
[28] = second compound 3.16 µM, first compound 1 µM
[29] = second compound 3.16 µM, first compound 3.16 µM
[30] = second compound 3.16 µM, first compound 10 µM
[31] = second compound 10 µM, first compound 0.0316 µM
[32] = second compound 10 µM, first compound 0.1 µM
[33] = second compound 10 µM, first compound 0.316 µM
[34] = second compound 10 µM, first compound 1 µM
[35] = second compound 10 µM, first compound 3.16 µM
[36] = second compound 10 µM, first compound 10 µM
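Also: spheroids exposed to compounds for seven days.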
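For viability, T/C in this document: 100% = DMSO vehicle control viability.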

## O=C(c1cc(Cc2n[nH]c(=O)c3ccccc23)ccc1F)N1CCN(C(=O)C2CC2)CC1 + COC1C(OC(N)=O)C(O)C(Oc2ccc3c(O)c(NC(=O)c4ccc(O)c(CC=C(C)C)c4)c(=O)oc3c2C)OC1(C)C
Second compound 0.0316 µM
  IC50: > 10000 nM
Second compound 0.1 µM
  IC50: > 10000 nM
Second compound 0.316 µM
  IC50: > 10000 nM
Second compound 1 µM
  IC50: > 10000 nM
Second compound 3.16 µM
  IC50: > 10000 nM
Second compound 10 µM
  IC50: > 10000 nM
[1]
  viability, T/C: 117%
[2]
  viability, T/C: 105%
[3]
  viability, T/C: 106%
[4]
  viability, T/C: 92.3%
[5]
  viability, T/C: 123%
[6]
  viability, T/C: 66.7%
[7]
  viability, T/C: 98.7%
[8]
  viability, T/C: 102%
[9]
  viability, T/C: 95%
[10]
  viability, T/C: 97.3%
[11]
  viability, T/C: 119%
[12]
  viability, T/C: 63.2%
[13]
  viability, T/C: 98.5%
[14]
  viability, T/C: 111%
[15]
  viability, T/C: 109%
[16]
  viability, T/C: 94%
[17]
  viability, T/C: 109%
[18]
  viability, T/C: 66.1%
[19]
  viability, T/C: 90.7%
[20]
  viability, T/C: 101%
[21]
  viability, T/C: 109%
[22]
  viability, T/C: 102%
[23]
  viability, T/C: 107%
[24]
  viability, T/C: 65.9%
[25]
  viability, T/C: 101%
[26]
  viability, T/C: 105%
[27]
  viability, T/C: 114%
[28]
  viability, T/C: 90.1%
[29]
  viability, T/C: 103%
[30]
  viability, T/C: 63.9%
[31]
  viability, T/C: 101%
[32]
  viability, T/C: 91.6%
[33]
  viability, T/C: 101%
[34]
  viability, T/C: 115%
[35]
  viability, T/C: 126%
[36]
  viability, T/C: 66.2%

## CC1COCCN1c1cc(C2(O)CC3CCC(C2)O3)c2cnn(-c3ccn[nH]3)c2n1 (stereo not given) + COC1C(OC(N)=O)C(O)C(Oc2ccc3c(O)c(NC(=O)c4ccc(O)c(CC=C(C)C)c4)c(=O)oc3c2C)OC1(C)C
Second compound 0.0316 µM
  IC50: 37.5 nM
Second compound 0.1 µM
  IC50: 39.6 nM
Second compound 0.316 µM
  IC50: 40.3 nM
Second compound 1 µM
  IC50: 37.2 nM
Second compound 3.16 µM
  IC50: 41.8 nM
Second compound 10 µM
  IC50: < 31.6 nM
[1]
  viability, T/C: 56.8%
[2]
  viability, T/C: 11%
[3]
  viability, T/C: 4.13%
[4]
  viability, T/C: 2.97%
[5]
  viability, T/C: 3.3%
[6]
  viability, T/C: 3.36%
[7]
  viability, T/C: 60%
[8]
  viability, T/C: 8.95%
[9]
  viability, T/C: 3.87%
[10]
  viability, T/C: 2.7%
[11]
  viability, T/C: 3.24%
[12]
  viability, T/C: 3.18%
[13]
  viability, T/C: 60%
[14]
  viability, T/C: 12.3%
[15]
  viability, T/C: 4.98%
[16]
  viability, T/C: 2.92%
[17]
  viability, T/C: 3.45%
[18]
  viability, T/C: 3.48%
[19]
  viability, T/C: 56.2%
[20]
  viability, T/C: 12.9%
[21]
  viability, T/C: 3.79%
[22]
  viability, T/C: 2.66%
[23]
  viability, T/C: 3.46%
[24]
  viability, T/C: 3.76%
[25]
  viability, T/C: 63%
[26]
  viability, T/C: 9.45%
[27]
  viability, T/C: 4.01%
[28]
  viability, T/C: 2.86%
[29]
  viability, T/C: 3.33%
[30]
  viability, T/C: 3.12%
[31]
  viability, T/C: 47.8%
[32]
  viability, T/C: 7.48%
[33]
  viability, T/C: 4.86%
[34]
  viability, T/C: 2.78%
[35]
  viability, T/C: 4.14%
[36]
  viability, T/C: 3.73%

## C#Cc1c(F)ccc2cc(O)cc(-c3ncc4c(N5CC6CCC(C5)N6)nc(OCC56CCCN5CC(F)C6)nc4c3F)c12 (stereo not given) + COC1C(OC(N)=O)C(O)C(Oc2ccc3c(O)c(NC(=O)c4ccc(O)c(CC=C(C)C)c4)c(=O)oc3c2C)OC1(C)C
Second compound 0.0316 µM
  IC50: 88.1 nM
Second compound 0.1 µM
  IC50: 91.9 nM
Second compound 0.316 µM
  IC50: 98 nM
Second compound 1 µM
  IC50: 95.5 nM
Second compound 3.16 µM
  IC50: 88.2 nM
Second compound 10 µM
  IC50: 74.6 nM
[1]
  viability, T/C: 78.8%
[2]
  viability, T/C: 47.2%
[3]
  viability, T/C: 17.3%
[4]
  viability, T/C: 13.3%
[5]
  viability, T/C: 5.89%
[6]
  viability, T/C: 3.8%
[7]
  viability, T/C: 73.6%
[8]
  viability, T/C: 48.1%
[9]
  viability, T/C: 24.4%
[10]
  viability, T/C: 10.3%
[11]
  viability, T/C: 8.42%
[12]
  viability, T/C: 3.79%
[13]
  viability, T/C: 87.3%
[14]
  viability, T/C: 49.5%
[15]
  viability, T/C: 21.1%
[16]
  viability, T/C: 9.93%
[17]
  viability, T/C: 5.5%
[18]
  viability, T/C: 3.94%
[19]
  viability, T/C: 92.4%
[20]
  viability, T/C: 48.4%
[21]
  viability, T/C: 15.6%
[22]
  viability, T/C: 8.5%
[23]
  viability, T/C: 5.97%
[24]
  viability, T/C: 3.63%
[25]
  viability, T/C: 73.6%
[26]
  viability, T/C: 47.1%
[27]
  viability, T/C: 19.5%
[28]
  viability, T/C: 7.53%
[29]
  viability, T/C: 5.69%
[30]
  viability, T/C: 3.42%
[31]
  viability, T/C: 74.3%
[32]
  viability, T/C: 42%
[33]
  viability, T/C: 18%
[34]
  viability, T/C: 9.65%
[35]
  viability, T/C: 8.31%
[36]
  viability, T/C: 3.67%

## COc1ccc([C@@H](O)c2cc(-c3ncnc4cc(N5CCOCC5)ccc34)c(F)cc2Cl)nn1 + Nc1ccc(C#CCN(C(=O)Cc2ncc(C(F)(F)F)cc2C(F)(F)F)c2ccc(F)cc2)nn1
Second compound 0.0316 µM
  IC50: > 10000 nM
Second compound 0.1 µM
  IC50: > 10000 nM
Second compound 0.316 µM
  IC50: > 10000 nM
Second compound 1 µM
  IC50: > 10000 nM
Second compound 3.16 µM
  IC50: > 10000 nM
Second compound 10 µM
  IC50: > 10000 nM
[1]
  viability, T/C: 104%
[2]
  viability, T/C: 109%
[3]
  viability, T/C: 110%
[4]
  viability, T/C: 103%
[5]
  viability, T/C: 90.2%
[6]
  viability, T/C: 58.5%
[7]
  viability, T/C: 97.6%
[8]
  viability, T/C: 106%
[9]
  viability, T/C: 99.5%
[10]
  viability, T/C: 96.3%
[11]
  viability, T/C: 101%
[12]
  viability, T/C: 67.7%
[13]
  viability, T/C: 99.3%
[14]
  viability, T/C: 95.6%
[15]
  viability, T/C: 107%
[16]
  viability, T/C: 108%
[17]
  viability, T/C: 101%
[18]
  viability, T/C: 60%
[19]
  viability, T/C: 114%
[20]
  viability, T/C: 101%
[21]
  viability, T/C: 104%
[22]
  viability, T/C: 95.4%
[23]
  viability, T/C: 98.3%
[24]
  viability, T/C: 63.8%
[25]
  viability, T/C: 111%
[26]
  viability, T/C: 105%
[27]
  viability, T/C: 97.6%
[28]
  viability, T/C: 116%
[29]
  viability, T/C: 99.7%
[30]
  viability, T/C: 63.2%
[31]
  viability, T/C: 104%
[32]
  viability, T/C: 90.6%
[33]
  viability, T/C: 102%
[34]
  viability, T/C: 114%
[35]
  viability, T/C: 111%
[36]
  viability, T/C: 57%

## O=c1[nH]cc(F)c(=O)[nH]1 + COC1C(OC(N)=O)C(O)C(Oc2ccc3c(O)c(NC(=O)c4ccc(O)c(CC=C(C)C)c4)c(=O)oc3c2C)OC1(C)C
Second compound 0.0316 µM
  IC50: > 10000 nM
Second compound 0.1 µM
  IC50: > 10000 nM
Second compound 0.316 µM
  IC50: > 10000 nM
Second compound 1 µM
  IC50: 9820 nM
Second compound 3.16 µM
  IC50: 9690 nM
Second compound 10 µM
  IC50: 9800 nM
[1]
  viability, T/C: 88%
[2]
  viability, T/C: 100%
[3]
  viability, T/C: 104%
[4]
  viability, T/C: 106%
[5]
  viability, T/C: 70%
[6]
  viability, T/C: 49.9%
[7]
  viability, T/C: 92%
[8]
  viability, T/C: 105%
[9]
  viability, T/C: 104%
[10]
  viability, T/C: 100%
[11]
  viability, T/C: 70%
[12]
  viability, T/C: 52%
[13]
  viability, T/C: 104%
[14]
  viability, T/C: 108%
[15]
  viability, T/C: 114%
[16]
  viability, T/C: 119%
[17]
  viability, T/C: 69.3%
[18]
  viability, T/C: 49.6%
[19]
  viability, T/C: 109%
[20]
  viability, T/C: 111%
[21]
  viability, T/C: 86.2%
[22]
  viability, T/C: 102%
[23]
  viability, T/C: 69%
[24]
  viability, T/C: 49.8%
[25]
  viability, T/C: 102%
[26]
  viability, T/C: 115%
[27]
  viability, T/C: 109%
[28]
  viability, T/C: 107%
[29]
  viability, T/C: 66.9%
[30]
  viability, T/C: 49.1%
[31]
  viability, T/C: 117%
[32]
  viability, T/C: 97.2%
[33]
  viability, T/C: 108%
[34]
  viability, T/C: 105%
[35]
  viability, T/C: 73.5%
[36]
  viability, T/C: 49.6%
